Results reported in US5352770A, “Porcine derived novel physiologically active peptide” (priority 1990, dated 1994).
Positions of bridges follow the written chain, without caps; N, C: chain ends. No end group written: not given here.

Columns and labels:
[1] = system: Male SD rats; assay: Natriuretic and hypotensive actions in anesthetized rats after intravenous administration; format: in vivo, rat; conditions: for Blood pressure drop / Cl- excretion / K+ excretion / Na+ excretion / Urine excretion: change in 15 min after administration vs before, mean±S.D., 4 animals
Experimental: Male SD rats (body weight: 230-290 g) were anesthetized by intraperitoneal injection with 65 mg/kg of pentobarbital and fitted with a tracheotomy tube (PE-240 of Clay Adams) in order to insure the respiratory tract. A cannula (PE-50) for blood pressure measurement was inserted into the hip artery and a Ringer's solution was injected at a steady rate of 1.8 ml/hr through a cannula (PE-10) inserted into the hip vein. A urinary sample was taken into a test tube through a cystic cannula in the form of a Silastic tube (i.d. 0.02 inch; o.d. 0.037 inch; Dow Corning). Urinary samples were taken both for 15 minutes before the administration of the test substance and until 15 minutes after the administration at 5 min interval, followed by subsequent sampling at predetermined time intervals. By comparing the amount of each sample with the concentration of an electrolyte in it, as well as by measuring the blood pressure changes, the actions of the test substance were evaluated.
The test substance CNP was dissolved in a predetermined amount in 0.1 N acetic acid and thereafter neutralized with a 1/10 volume of 1.3 M Tris solution. The sample was diluted with 50 μl of sterilized physiological saline and administered via the cervical vein.
Data are shown in terms of mean±S.D., as obtained from each group of 4 animals, of the change that occurred in the 15-min period from the administration of the test substance, as compared to the state before the administration.

[2] = system: cultured vascular smooth muscle cell line; assay: cGMP production in cultured vascular smooth muscle cell line; format: cell-based
[3] = system: chick rectum; assay: Chick rectum relaxant activity; conditions: fold activity versus α-hANP
Experimental: Chick rectum relaxant activity was measured in accordance with the method of Curtie et al. (Cuttle et al., Nature, 221, 1-13, 1983).

[4] = system: VSMC of rats; assay: Cell growth suppressing activity ([3H]thymidine uptake); format: cell-based, rat; conditions: cultured vascular smooth muscle cell line
Experimental: Cell growth suppressing ability was evaluated in accordance with the method of Kariya et al. (Atherosclerosis, 80, 143-147, 1990) by measuring the uptake of ^3 H thymidine into cells as an indicator of DNA synthesis activity using VSMC of rats. Cells tuned to a stationary phase were incubated in 1% serum at 37° C. for 14 h together with various concentrations of α-hANP or CNP; following the addition of 37 KBq/ml [^3 H]thymidine, the incubation was continued for another 4 h. The radioactivity of [^3 H] thymidine incorporated into the cells was measured. The values of measurement were such that the radioactivity of [^3 H] thymidine for the case where only 1% serum was added in the absence of peptide was taken as 100%, with the percent suppression due to the peptide at the respective concentrations being accordingly calculated.

[5] = system: rats; conditions: cited from earlier work

Row | Compound | Blood pressure drop ([1]; CNP dose 12 nmol/kg i.v.) [mmHg] | Cl- excretion ([1]; CNP dose 12 nmol/kg i.v.) [%] | K+ excretion ([1]; CNP dose 12 nmol/kg i.v.) [%] | Na+ excretion ([1]; CNP dose 12 nmol/kg i.v.) [%] | Urine excretion ([1]; CNP dose 12 nmol/kg i.v.) [%] | Blood pressure drop ([1]; CNP dose 80 nmol/kg i.v.) [mmHg] | Cl- excretion ([1]; CNP dose 80 nmol/kg i.v.) [%] | K+ excretion ([1]; CNP dose 80 nmol/kg i.v.) [%] | Na+ excretion ([1]; CNP dose 80 nmol/kg i.v.) [%] | Urine excretion ([1]; CNP dose 80 nmol/kg i.v.) [%] | Blood pressure drop ([1]; CNP dose 160 nmol/kg i.v.) [mmHg] | Cl- excretion ([1]; CNP dose 160 nmol/kg i.v.) [%] | K+ excretion ([1]; CNP dose 160 nmol/kg i.v.) [%] | Na+ excretion ([1]; CNP dose 160 nmol/kg i.v.) [%] | Urine excretion ([1]; CNP dose 160 nmol/kg i.v.) [%] | Natriuretic and hypotensive actions (in words) ([1]; rats, intravenous, 12-160 nmol/kg) | Activity for promoting the production of cGMP (in words) [2] | Chick rectum relaxant activity relative to α-hANP [3] | Growth inhibiting action on vascular smooth muscle cells (in words) [4] | Natriuretic and hypotensive actions compared with α-hANP (in words) [5]
1 | CC[C@H](C)[C@@H]1NC(=O)[C@H](CCCNC(=N)N)NC(=O)[C@H](CC(=O)O)NC(=O)[C@H](CC(C)C)NC(=O)[C@H](CCCCN)NC(=O)[C@H](CC(C)C)NC(=O)CNC(=O)[C@H](Cc2ccccc2)NC(=O)[C@@H](NC(=O)CNC(=O)[C@H](CCCCN)NC(=O)[C@H](CO)NC(=O)[C@H](CC(C)C)NC(=O)CN)CSSC[C@@H](C(=O)O)NC(=O)CNC(=O)[C@H](CC(C)C)NC(=O)CNC(=O)[C@H](CO)NC(=O)[C@H](CCSC)NC(=O)[C@H](CO)NC(=O)CNC1=O [CNP] | 6.7 ± 1.7 | 228 ± 32 | 220 ± 43 | 192 ± 28 | 229 ± 38 | 16.7 ± 4.2 | 301 ± 83 | 167 ± 29 | 286 ± 125 | 251 ± 62 | 14.2 ± 5.2 | 400 ± 45 | 238 ± 46 | 371 ± 69 | 421 ± 40 | those actions increased in a dose-dependent manner | found to have an activity for promoting the production of cyclic guanosine monophosphate | 3 - 4 times | had a growth inhibiting action | 
2 | pBNP: porcine-derived brain natriuretic peptide, single-stranded peptide composed of 26 amino acids having a single S--S bond (DSGCFGRRLDRIGSLSGLGCNVLRRY; disulfide 4-20 (inferred); UniProt P07634 106-131, looked up) |  |  |  |  |  |  |  |  |  |  |  |  |  |  |  |  |  |  |  | comparable levels of natriuretic and hypotensive actions to α-hANP
